{"source": "patent US20250270648A1", "about": "“MOLECULAR SIGNATURE FOR ASSESSING THE RESPONSIVENESS OF CANCER TO MITOCHONDRIA-TARGETED ANTIOXIDANTS” (UNIVERSITÉ CATHOLIQUE DE LOUVAIN, priority 2021, published 2025)", "key": {"MDA-MB-231 cells": {"tested_on": "MDA-MB-231 cells", "assay": "Clonogenic assay on soft agar", "assay_type": "cell-based, human", "conditions": "MitoQ 250 nM", "experimental": "(§1) For soft agar colony formation assays, 0.4% Seaplaque soft agar (Lonza®) was diluted with DMEM containing 10% FBS and was covered by a second 0.3% soft agar layer in which 500 MDA-MB-231 or SKBR3 cells were embedded. Complete DMEM Culture media ±MitoQ was added with 2× the final concentration. After 20 days, colonies were counted using an Axiovert™ 40 CFL microscope equipped with a MRC camera."}, "SkBr3 cells": {"tested_on": "SkBr3 cells", "assay": "Clonogenic assay on soft agar", "assay_type": "cell-based, human", "conditions": "MitoQ 250 nM", "experimental": "as §1"}, "[1]": {"tested_on": "MDA-MB-231 and SkBr3 cells in culture", "assay": "RT-qPCR validation of mRNA biomarkers in vitro", "assay_type": "cell-based, human", "conditions": "MitoQ 500 nM, 48 h", "experimental": "(§2) Total mRNA from MDA-MB-231, SkBr3 and MDA-MB-436 cells treated ±MitoQ for 48 h was extracted using the NucleoSpin RNA Kit (Macherey-Nagel®). Total mRNA from primary tumors was extracted with Tri reagent (Molecular Research Center®, Cat #TR118). mRNAs were quantified by the Qubit BR dsRNA assay kit (Thermo Fisher Scientific®), and mRNA integrity was evaluated on an Agilent® 2100 Bioanalyzer with the RNA 6000 nano kit (Agilent®). It was reverse transcribed in complementary DNA using the High-Capacity cDNA Reverse Transcription Kit (Applied Biosystems®, cat #4368814) according to manufacturer's protocol. Complementary DNA (500 ng) was amplified by real time quantitative PCR (RT-qPCR) using the low ROX SYBR Master Mix dTTP Blue (Eurogentec®) and primers listed in Table 5 and Table 6 on a ViiA 7 Real-Time PCR System (Thermo Fisher Scientific®). Gene expression was normalized to β-actin gene expression.\nWhile EMT and sternness markers are usual suspects when testing antimetastatic strategies, it was decided to go deeper in the understanding of the molecular effects of MitoQ, and performed unbiased RNA sequencing (RNAseq) using cells treated for 48 h±MitoQ (500 nM). […] On independent samples upon the same conditions (including |log 2 Fold Change|>1 and P<0.01), RT-qPCR on the two cell lines validated all genes as potential biomarkers of human breast cancer cell response to MitoQ, to the exception of EID1, PEG10, FTH1 and NUPR1 (FIG. 12A-M and Table 7)."}, "[2]": {"tested_on": "MDA-MB-231 primary tumors in mice", "assay": "RT-qPCR of resected primary tumors", "assay_type": "in vivo, mouse", "conditions": "MitoQ 20 mg/kg daily oral", "experimental": "as §2\nFor spontaneous metastasis assays using human breast cancer cells, MDA-MB-231, SkBr3 or MDA-MB-436 cells were prepared in medium containing 10% growth factor-reduced Matrigel (Corning®, cat #734-11-01). Five weeks-old female Rj:NMRI-Foxnlnu/nu mice (Janvier) were injected with 10^6 cancer cells in 100 μL of solution in the left second mammary fat pad. After tumor take (72 h), mice were daily treated ±20 mg/Kg MitoQ by oral gavage. Tumor size was measured once per week with an electronic caliper. Four weeks after treatment initiation, primary tumors were surgically removed and processed for RT-qPCR. Tumor recurrence was monitored until recurred tumors in the vehicle group reached about […], i.e. 24 days after surgery. At this time point, mice were sacrificed and their lungs collected and fixed in PFA 4% for immunocytochemistry."}, "[3]": {"tested_on": "primary breast tumors of MMTV-PyMT mice", "assay": "RT-qPCR of primary breast tumors", "assay_type": "in vivo", "conditions": "FEC + MitoQ 18 mg/kg daily oral; mouse transcripts; P<0.01; read-out: fold induction of SLC7A11, SERPINE1 and TXNRD1 (each independently)", "experimental": "as §2\nFemale FVB/N-Tg(MMTV-PyMT)634Mul/J (MMTV-PyMT) mice that express the polyomavirus middle T antigen spontaneously develop orthotropic multifocal breast adenocarcinomas that spontaneously disseminate metastases to the lungs during mouse lifetime. […] They were sacrificed at 16 weeks-old, and the lungs insufflated with Indian ink for metastasis quantification as described above. […]"}, "[4]": {"tested_on": "human MCF7 breast cancer cells", "assay": "Cell viability, CellTiter-Glo", "assay_type": "cell-based", "conditions": "increasing doses of DXR ±100 nM MitoQ, 48 h", "experimental": "Cells were plated in 96-well plates and left to adhere for 16 hours. In order to avoid reaching full confluence at the endpoint, starting cell count was defined according to doubling time and the duration of the experiment. Following adhesion, cells were treated with the indicated compounds for 48 h, after which staining was done with a CellTiter-Glo Luminescent Cell Viability assay (Promega®, catalogue #G7570), according to supplier's instructions. This method is based on the quantification of intracellular ATP levels."}}, "data": [{"smiles": "COC1=C(OC)C(=O)C(CCCCCCCCCC[P+](c2ccccc2)(c2ccccc2)c2ccccc2)=C(C)C1=O", "note": "[MitoQ]", "values": [{"measurement": "clonogenicity in suspension on soft agar", "setting": "MDA-MB-231 cells", "value": "completely abrogated"}, {"measurement": "clonogenicity in suspension on soft agar", "setting": "SkBr3 cells", "value": "completely abrogated"}, {"measurement": "ASNS transcript upregulated in response to MitoQ: Validated in vitro", "setting": "[1]", "value": "+ (Repressed or induced by ≥2-fold with P < 0.01 in both MDA-MB-231 and SkBr3 cells in culture.)"}, {"measurement": "G6PD transcript upregulated in response to MitoQ: Validated in vitro", "setting": "[1]", "value": "+ (Repressed or induced by ≥2-fold with P < 0.01 in both MDA-MB-231 and SkBr3 cells in culture.)"}, {"measurement": "PCK2 transcript upregulated in response to MitoQ: Validated in vitro", "setting": "[1]", "value": "+ (Repressed or induced by ≥2-fold with P < 0.01 in both MDA-MB-231 and SkBr3 cells in culture.)"}, {"measurement": "PHGDH-1 transcript upregulated in response to MitoQ: Validated in vitro", "setting": "[1]", "value": "+ (Repressed or induced by ≥2-fold with P < 0.01 in both MDA-MB-231 and SkBr3 cells in culture.)"}, {"measurement": "PSAT1 transcript upregulated in response to MitoQ: Validated in vitro", "setting": "[1]", "value": "+ (Repressed or induced by ≥2-fold with P < 0.01 in both MDA-MB-231 and SkBr3 cells in culture.)"}, {"measurement": "SERPINE1 transcript upregulated in response to MitoQ: Validated in vitro", "setting": "[1]", "value": "+ (Repressed or induced by ≥2-fold with P < 0.01 in both MDA-MB-231 and SkBr3 cells in culture.)"}, {"measurement": "SLC6A9 transcript upregulated in response to MitoQ: Validated in vitro", "setting": "[1]", "value": "+ (Repressed or induced by ≥2-fold with P < 0.01 in both MDA-MB-231 and SkBr3 cells in culture.)"}, {"measurement": "SLC7A11 transcript upregulated in response to MitoQ: Validated in vitro", "setting": "[1]", "value": "+ (Repressed or induced by ≥2-fold with P < 0.01 in both MDA-MB-231 and SkBr3 cells in culture.)"}, {"measurement": "TXNRD1 transcript upregulated in response to MitoQ: Validated in vitro", "setting": "[1]", "value": "+ (Repressed or induced by ≥2-fold with P < 0.01 in both MDA-MB-231 and SkBr3 cells in culture.)"}, {"measurement": "tumor samples in which PSAT1 expression was induced", "setting": "[2]", "value": 100, "unit": "%"}, {"measurement": "PHGDH-1 transcript upregulated in response to MitoQ: Validated in vivo", "setting": "[2]; tumors resected day +32", "value": "+ (Repressed or induced by ≥2-fold with P < 0.01 and MDA-MB-231 primary tumors in mice.)"}, {"measurement": "PSAT1 transcript upregulated in response to MitoQ: Validated in vivo", "setting": "[2]; tumors resected day +32", "value": "+ (Repressed or induced by ≥2-fold with P < 0.01 and MDA-MB-231 primary tumors in mice.)"}, {"measurement": "SERPINE1 transcript upregulated in response to MitoQ: Validated in vivo", "setting": "[2]; tumors resected day +32", "value": "+ (Repressed or induced by ≥2-fold with P < 0.01 and MDA-MB-231 primary tumors in mice.)"}, {"measurement": "SLC7A11 transcript upregulated in response to MitoQ: Validated in vivo", "setting": "[2]; tumors resected day +32", "value": "+ (Repressed or induced by ≥2-fold with P < 0.01 and MDA-MB-231 primary tumors in mice.)"}, {"measurement": "TXNRD1 transcript upregulated in response to MitoQ: Validated in vivo", "setting": "[2]; tumors resected day +32", "value": "+ (Repressed or induced by ≥2-fold with P < 0.01 and MDA-MB-231 primary tumors in mice.)"}, {"measurement": "fold induction at 20 mg/kg", "setting": "[2]; Mus musculus, MDA-MB-231, P<0.01, read-out: fold induction of PHGDH-1, SLC7A11, SERPINE1, TXNRD1 and PSAT1 (each independently)", "value": "≥ 2"}, {"measurement": "fold induction at 18 mg/kg", "setting": "[3]", "value": "≥ 2"}, {"measurement": "DXR-induced cell killing", "setting": "[4]", "value": "did not interfere"}]}]}
